# PubChem BioAssay (NCI)
#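 Cultured in 96-well plates, cells were exposed to test compound for 48 hours across five concentrations. GI50 marks 50% less growth. TGI is the concentration that stops growth completely.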 Where a SMILES comes first, the peptide text is derived from it. The star is where a group is joined. Palmitoyl = CCCCCCCCCCCCCCCC(=O)*
# Legend:
# Assay in all cases: DTP human tumour cell line panel, 48 h
# [1] = test system: DU-145 prostate
# [2] = test system: EKVX NSCLC
# [3] = test system: HOP-62 NSCLC
# [4] = test system: KM12 colon
# [5] = test system: MOLT-4 leukemia
# [6] = test system: NCI-H23 lung
# [7] = test system: OVCAR-4 ovarian
# [8] = test system: SK-MEL-5 melanoma
# [9] = test system: HOP-92 NSCLC
# [10] = test system: SW-620 colon
Structure (SMILES),TGI [1],TGI [2],TGI [3],TGI [4],TGI [5],TGI [6],TGI [7],TGI [8],TGI [9],TGI [10],GI50 [1],GI50 [3],GI50 [9],GI50 [4],GI50 [6],GI50 [7],GI50 [8],GI50 [10],GI50 [2],GI50 [5]
Cc1c(-c2ccccc2)[nH]c2cc(Cl)ccc2c1=O,> 100 µM,> 100 µM,60 µM,18.7 µM,> 100 µM,> 100 µM,66.3 µM,> 100 µM,,,,,,,,,,,,
Cn1c(-c2ccccc2)cc(-c2cccs2)c1-c1cccs1,,> 100 µM,> 100 µM,> 44.9 µM,> 100 µM,> 100 µM,> 100 µM,> 100 µM,> 100 µM,> 100 µM,,,,,,,,,,
c1ccc(-c2nc(N3CCNCC3)c3oc(-c4ccccc4)nc3n2)cc1,3.33 µM,,4.81 µM,3.35 µM,,3.39 µM,3.19 µM,3.2 µM,3.06 µM,2.94 µM,1.88 µM,2.26 µM,1.46 µM,1.8 µM,1.76 µM,1.68 µM,1.77 µM,1.35 µM,,
CCCC1CCC(=C2C(=O)CCC2=O)O1 (centres undefined),> 100 µM,> 100 µM,> 100 µM,> 100 µM,> 100 µM,> 100 µM,> 100 µM,,> 100 µM,> 100 µM,,,,,,,,,,
C/C(=N/N=C(\[O-])c1ccncc1)C(F)(F)F.C/C(=N\N=C(/[O-])c1ccncc1)C(F)(F)F.[Ni+2],> 1 µM,> 1 µM,> 1 µM,> 1 µM,> 1 µM,> 1 µM,,,,> 1 µM,> 1 µM,> 1 µM,,> 1 µM,> 1 µM,,,> 1 µM,> 1 µM,> 1 µM
Nc1nc(Nc2ccccc2)c2[nH]cnc2n1,> 100 µM,> 100 µM,> 100 µM,> 100 µM,> 100 µM,> 100 µM,> 100 µM,> 100 µM,92.4 µM,> 100 µM,,,,,,,,,,
CON(C)c1nc(N(C)OC)nc(N(C)OC)n1,> 10 µM,> 10 µM,> 10 µM,> 10 µM,> 10 µM,> 10 µM,> 10 µM,> 10 µM,,> 10 µM,,,,,,,,,,
COc1cc(C(C)O)c[n+](Cc2ccccc2)c1 (centres undefined),,> 100 µM,> 100 µM,> 100 µM,> 100 µM,> 100 µM,> 100 µM,> 100 µM,> 100 µM,> 100 µM,,,,,,,,,,
CCOC(=O)c1c(C)n(-c2ccc(Cl)cc2)c2c1cc(O)c1[nH]c3c(c12)CCCC3,> 100 µM,> 100 µM,> 100 µM,> 100 µM,> 100 µM,> 100 µM,> 100 µM,49.4 µM,> 100 µM,> 100 µM,,,,,,,,,,
Nc1[nH]c(=O)nc2c1cnn2C1CCCCO1 (centres undefined),,> 100 µM,,> 100 µM,> 100 µM,> 100 µM,> 100 µM,> 100 µM,> 100 µM,> 100 µM,,,,,,,,,,
CCCCCCCCCCCCCCCC(=O)N1CCCC1C(=O)NCC(=O)NC(Cc1ccccc1)C(=O)NC(C)C(=O)NC(CO)C(=O)NC(Cc1ccc(O)cc1)C(=O)NC(CCCCN)C(=O)NC(CC(C)C)C(=O)NC(CCCN=C(N)N)C(=O)N1CCCC1C(=O)NCC(N)=O (centres undefined) (Palmitoyl-PGFASYKLRPG-NH2; configuration not given here),43.6 µM,52.1 µM,46 µM,51.4 µM,31.4 µM,58.9 µM,92.6 µM,> 100 µM,34.7 µM,> 100 µM,15.7 µM,21.1 µM,15.8 µM,21.9 µM,23.6 µM,33.8 µM,33.4 µM,37.5 µM,20.1 µM,17.6 µM
O[C@@]12Cc3c([nH]c4ccccc34)[C@@H]3Oc4cccc5c4[C@@]31CCN(CC1CC1)[C@@H]2C5,45.2 µM,47.6 µM,46.6 µM,54 µM,52.7 µM,55.6 µM,41.3 µM,40.7 µM,25.6 µM,25.7 µM,,,,,,,,,,
CC(N)Cc1ccc(Cl)c(Cl)c1 (centres undefined),,> 100 µM,> 100 µM,> 100 µM,71.2 µM,> 100 µM,> 100 µM,31 µM,57.4 µM,51.8 µM,,,,,,,,,,
CN1C(c2ccccc2)CC(=O)C(N)C1c1ccccc1 (centres undefined),,> 80.4 µM,> 100 µM,57.5 µM,> 58.8 µM,> 100 µM,> 100 µM,33.6 µM,78.9 µM,57.1 µM,,,,,,,,,,
CC(C)C(C(=O)O)N1C(=O)c2ccccc2C1=O (centres undefined),> 100 µM,> 100 µM,> 100 µM,> 100 µM,> 100 µM,> 100 µM,> 100 µM,> 100 µM,> 100 µM,> 100 µM,,,,,,,,,,
Nc1nc(O)c2ncn([C@H]3CC[C@@H](CO)O3)c2n1,> 100 µM,,> 100 µM,> 100 µM,> 100 µM,> 100 µM,> 100 µM,> 100 µM,> 100 µM,> 100 µM,,,,,,,,,,
C[N+](C)(C)c1ncnc2c1ncn2C1CC(O)C(CO)O1 (centres undefined),> 100 µM,> 100 µM,> 100 µM,> 100 µM,> 100 µM,> 100 µM,> 100 µM,> 100 µM,> 100 µM,> 100 µM,,,,,,,,,,
